Assay results taken from patent US11673897B2, “Compounds for the treatment of kinase-dependent disorders” (Exelixis, Inc., priority 2018, dated 2023).

What was measured:
AXL = AXL (Homo sapiens (Human), UniProt P30530); assay: AXL autophosphorylation ELISA in A-172 cells; assay type: cell-based; details: cellular, Gas6-stimulated, phospho-AXL ELISA
In short: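 A-172 glioblastoma cells, serum-starved 24 h, took compounds for 1 h (8-point curve, 0.3% DMSO) before 15 min stimulation with 1 μg/mL recombinant human Gas6. Lysate phospho-AXL measured by ELISA against a phospho-AXL standard, normalized to DMSO (100%) and reference inhibitor (0%); IC50 from 4-parameter logistic fit.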

Human Axl = Human Axl (Homo sapiens (Human), UniProt P30530, Q764R); assay: Human AXL kinase assay (33P radiometric, KinaseProfiler); assay type: biochemical; details: 10 μM ATP
Chain of Human Axl (P30530 473-894 Q764R): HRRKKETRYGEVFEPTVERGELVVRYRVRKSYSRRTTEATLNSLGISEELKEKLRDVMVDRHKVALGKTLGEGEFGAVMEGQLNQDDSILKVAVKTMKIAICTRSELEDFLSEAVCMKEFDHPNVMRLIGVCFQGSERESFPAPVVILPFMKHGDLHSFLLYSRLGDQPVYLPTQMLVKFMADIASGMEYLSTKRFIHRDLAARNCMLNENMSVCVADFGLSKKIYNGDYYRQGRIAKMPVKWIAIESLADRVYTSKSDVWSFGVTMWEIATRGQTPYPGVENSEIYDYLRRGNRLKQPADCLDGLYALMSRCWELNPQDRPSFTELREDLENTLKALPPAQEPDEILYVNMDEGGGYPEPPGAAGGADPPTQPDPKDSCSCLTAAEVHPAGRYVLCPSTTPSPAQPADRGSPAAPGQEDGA
Experimental: Kinase activity and compound inhibition were investigated using the ^33P-Phosphoryl transfer radiometric kinase assay, performed using the KinaseProfiler™ service of Eurofins Pharma Discovery Services UK Limited. Dose-response experiments were performed using nine compound concentrations in a 96-well microtiter plate. For each assay, all compounds were prepared to a 50× final assay concentration (50 μM) in 100% DMSO, then diluted in a half-log series, with the final top concentration at 1 μM. This working stock of the compound was added to the assay well as the first component in the reaction, followed by the remaining components as detailed in the following assay protocols below. The positive control wells (100% kinase activity) contain all components of the reaction including 2% DMSO (control for solvent effects), except the compound of interest. Blank wells contain all components of the reaction, with the reference inhibitor, staurosporine. This reference compound was used to abolish kinase activity and generated the 0% kinase activity base-line. IC50 values were calculated by nonlinear regression analysis using the sigmoidal dose-response (variable slope) curve fit on XLFit version 5.3 (ID Business Solutions).
Human Axl (residues H473-A894 with Q764R, 161 nM) was incubated with 8 mM MOPS pH 7.0, 0.2 mM EDTA, 250 μM KKSRGDYMTMQIG (SEQ ID NO. 43), 10 mM magnesium acetate and 10 μM [γ-33P-ATP]. The reaction was initiated by the addition of the Mg/ATP mix. After incubation for 40 minutes at room temperature, the reaction was stopped by the addition of phosphoric acid to a concentration of 0.5%. A reaction aliquot of 10 μL was then spotted onto a P30 filtermat and washed four times for 4 minutes in 0.425% phosphoric acid and once in methanol prior to drying and scintillation counting. Incorporated ^33P was measured using the Wallac Microbeta scintillation counter (Perkin Elmer).

Mer = Mer (Homo sapiens (Human), UniProt Q12866); assay: Mer autophosphorylation ELISA in transient transfected 293A cells; assay type: cell-based; details: cellular, MERTK-transfected 293A cells, phospho-Mer ELISA
Chain of Mer (Q12866 21-999): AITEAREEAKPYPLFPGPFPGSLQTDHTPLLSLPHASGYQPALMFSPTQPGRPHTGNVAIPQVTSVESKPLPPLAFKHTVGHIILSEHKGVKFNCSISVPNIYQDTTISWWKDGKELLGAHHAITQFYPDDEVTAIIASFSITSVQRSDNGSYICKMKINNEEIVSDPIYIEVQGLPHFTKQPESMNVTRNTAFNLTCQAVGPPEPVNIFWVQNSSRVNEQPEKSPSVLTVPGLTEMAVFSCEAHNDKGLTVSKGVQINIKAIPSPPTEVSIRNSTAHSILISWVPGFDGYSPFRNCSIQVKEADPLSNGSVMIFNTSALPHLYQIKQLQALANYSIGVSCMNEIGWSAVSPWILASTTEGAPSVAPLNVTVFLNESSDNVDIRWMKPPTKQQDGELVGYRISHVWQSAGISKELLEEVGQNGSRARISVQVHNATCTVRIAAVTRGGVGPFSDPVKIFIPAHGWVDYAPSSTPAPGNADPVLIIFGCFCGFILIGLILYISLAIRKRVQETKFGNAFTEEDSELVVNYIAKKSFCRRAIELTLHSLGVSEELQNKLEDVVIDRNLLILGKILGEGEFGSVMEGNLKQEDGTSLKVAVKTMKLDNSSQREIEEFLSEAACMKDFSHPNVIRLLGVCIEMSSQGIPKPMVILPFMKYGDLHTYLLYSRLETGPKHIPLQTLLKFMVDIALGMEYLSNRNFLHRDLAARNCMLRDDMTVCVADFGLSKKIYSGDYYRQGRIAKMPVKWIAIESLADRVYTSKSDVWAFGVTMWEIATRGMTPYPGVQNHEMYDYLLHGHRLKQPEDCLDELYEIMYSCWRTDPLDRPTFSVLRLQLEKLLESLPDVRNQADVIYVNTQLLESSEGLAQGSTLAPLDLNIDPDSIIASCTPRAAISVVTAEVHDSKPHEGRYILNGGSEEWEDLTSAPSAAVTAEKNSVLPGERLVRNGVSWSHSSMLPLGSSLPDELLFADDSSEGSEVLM
In short: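 293A cells transiently transfected with human MERTK DNA, then treated 1 h with 8-point compound dilutions in serum-free medium (0.3% DMSO). Phospho-Mer in lysates quantified by sandwich ELISA against phospho-Mer standard; normalised to DMSO (100%) and reference inhibitor (0%), IC50 from 4-parameter logistic fit.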

Chain of AXL (P30530 26-894): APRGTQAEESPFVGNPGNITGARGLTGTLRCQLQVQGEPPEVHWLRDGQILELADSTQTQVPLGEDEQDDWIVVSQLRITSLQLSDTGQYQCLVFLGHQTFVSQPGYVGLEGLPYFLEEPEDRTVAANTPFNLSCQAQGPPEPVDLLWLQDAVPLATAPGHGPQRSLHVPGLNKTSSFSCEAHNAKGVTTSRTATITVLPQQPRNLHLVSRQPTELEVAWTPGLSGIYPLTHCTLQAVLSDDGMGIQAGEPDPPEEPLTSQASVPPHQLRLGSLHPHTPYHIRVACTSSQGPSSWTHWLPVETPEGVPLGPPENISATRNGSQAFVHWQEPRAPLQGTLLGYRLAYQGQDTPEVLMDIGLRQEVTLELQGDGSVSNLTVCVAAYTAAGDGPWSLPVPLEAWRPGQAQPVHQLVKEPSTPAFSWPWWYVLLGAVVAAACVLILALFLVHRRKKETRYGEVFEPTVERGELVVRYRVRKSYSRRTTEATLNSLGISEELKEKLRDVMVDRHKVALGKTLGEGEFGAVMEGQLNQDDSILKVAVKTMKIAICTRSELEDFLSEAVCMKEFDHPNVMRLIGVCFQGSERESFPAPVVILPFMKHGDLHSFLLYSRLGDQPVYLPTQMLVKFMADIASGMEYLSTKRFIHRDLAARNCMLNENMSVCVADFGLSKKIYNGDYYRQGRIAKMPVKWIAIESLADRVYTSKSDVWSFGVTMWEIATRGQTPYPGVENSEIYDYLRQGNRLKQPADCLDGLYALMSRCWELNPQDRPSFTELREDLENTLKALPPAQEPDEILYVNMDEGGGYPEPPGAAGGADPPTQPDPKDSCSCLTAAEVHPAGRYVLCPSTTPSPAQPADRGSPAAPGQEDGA

## COC(=O)c1cc2c(Oc3ccc(NC(=O)C4(C(=O)Nc5ccc(F)cc5)CC4)cn3)ccnc2cc1OC [Compound 10, Methyl 4-[5-[[1-[(4-fluorophenyl)carbamoyl]cyclopropanecarbonyl]-amino]pyridin-2-yl]oxy-7-methoxyquinoline-6-carboxylate]
AXL
  IC50: 10 to 100 nM
Human Axl
  IC50: ≤ 10 nM

## COC(=O)c1cc2c(Oc3ncc(NC(=O)C4(C(=O)Nc5ccc(F)cc5)CC4)cc3Cl)ccnc2cc1OC [Compound 11, Methyl 4-[3-chloro-5-[[1-[(4-fluorophenyl)carbamoyl]cyclopropanecarbonyl]-amino]pyridin-2-yl]oxy-7-methoxyquinoline-6-carboxylate]
AXL
  IC50: 10 to 100 nM
Mer
  IC50: 10 to 100 nM
Human Axl
  IC50: ≤ 10 nM

## COc1cc2nccc(Oc3ccc(NC(=O)C4(C(=O)Nc5ccc(F)cc5)CC4)cn3)c2cc1C(N)=O [Compound 16, 1-N′-[6-(6-Carbamoyl-7-methoxyquinolin-4-yl)oxypyridin-3-yl]-1-N-(4-fluorophenyl)-cyclopropane-1,1-dicarboxamide]
AXL
  IC50: 10 to 100 nM
Human Axl
  IC50: 10 to 100 nM

## CNC(=O)c1cc2c(Oc3ccc(NC(=O)C4(C(=O)Nc5ccc(F)cc5)CC4)cn3)ccnc2cc1OC [Compound 17, 1-N-(4-Fluorophenyl)-1-N′-[6-[7-methoxy-6-(methylcarbamoyl)quinolin-4-yl]oxypyridin-3-yl]cyclopropane-1,1-dicarboxamide]
AXL
  IC50: 10 to 100 nM
Human Axl
  IC50: 10 to 100 nM

## COc1cc2nccc(Oc3ncc(NC(=O)C4(C(=O)Nc5ccc(F)cc5)CC4)cc3Cl)c2cc1C(N)=O [Compound 18, 1-N′-[6-(6-Carbamoyl-7-methoxyquinolin-4-yl)oxy-5-chloropyridin-3-yl]-1-N-(4-fluorophenyl)cyclopropane-1,1-dicarboxamide]
AXL
  IC50: ≤ 10 nM
Mer
  IC50: 10 to 100 nM
Human Axl
  IC50: ≤ 10 nM

## COc1cc2nccc(Oc3ccc(NC(=O)C4(C(=O)Nc5ccc(F)cc5)CC4)cn3)c2cc1-c1cn[nH]c1 [Compound 60, 1-N-(4-Fluorophenyl)-1-N′-[6-[7-methoxy-6-(1H-pyrazol-4-yl)quinolin-4-yl]oxypyridin-3-yl]cyclopropane-1,1-dicarboxamide]
AXL
  IC50: 10 to 100 nM
Mer
  IC50: 10 to 100 nM
Human Axl
  IC50: ≤ 10 nM

## COc1cc2nccc(Oc3ncc(NC(=O)C4(C(=O)Nc5ccc(F)cc5)CC4)cc3Cl)c2nc1OC [Compound 80, 1-N′-[5-Chloro-6-[(6,7-dimethoxy-1,5-naphthyridin-4-yl)oxy]pyridin-3-yl]-1-N-(4-fluorophenyl)cyclopropane-1,1-dicarboxamide]
AXL
  IC50: 100 to 300 nM
Mer
  IC50: 100 to 300 nM
Human Axl
  IC50: 10 to 100 nM

## COc1cc2nccc(Oc3ccc(NC(=O)C4(C(=O)Nc5ccc(F)cc5)CC4)cn3)c2nc1OC [Compound 81, 1-N′-[6-[(6,7-Dimethoxy-1,5-naphthyridin-4-yl)oxy]pyridin-3-yl]-1-N-(4-fluorophenyl)cyclopropane-1,1-dicarboxamide]
AXL
  IC50: 100 to 300 nM
Human Axl
  IC50: 10 to 100 nM

## COc1cc2nccc(Oc3ncc(NC(=O)C4(C(=O)Nc5ccc(F)cc5)CC4)cc3F)c2nc1OC [Compound 82, 1-N′-[6-[(6,7-Dimethoxy-1,5-naphthyridin-4-yl)oxy]-5-fluoropyridin-3-yl]-1-N-(4-fluorophenyl)cyclopropane-1,1-dicarboxamide]
AXL
  IC50: 10 to 100 nM
Mer
  IC50: 10 to 100 nM
Human Axl
  IC50: ≤ 10 nM
